Key:
[1] = target: T1, human recombinant serotonin (5-Hydroxytryptamine) 5-HT2C receptor (Homo sapiens, UniProt P28335); test: Serotonin 5-HT2C radioligand binding ([3H]Mesulergine); details: compound at 1 μM; read-out: Serotonin (1 μM) 5-HT2C, percent inhibition of specific binding
T1 construct: expressed in transfected cells; host or cells: CHO-K1 cells
T1 sequence (P28335 33-458): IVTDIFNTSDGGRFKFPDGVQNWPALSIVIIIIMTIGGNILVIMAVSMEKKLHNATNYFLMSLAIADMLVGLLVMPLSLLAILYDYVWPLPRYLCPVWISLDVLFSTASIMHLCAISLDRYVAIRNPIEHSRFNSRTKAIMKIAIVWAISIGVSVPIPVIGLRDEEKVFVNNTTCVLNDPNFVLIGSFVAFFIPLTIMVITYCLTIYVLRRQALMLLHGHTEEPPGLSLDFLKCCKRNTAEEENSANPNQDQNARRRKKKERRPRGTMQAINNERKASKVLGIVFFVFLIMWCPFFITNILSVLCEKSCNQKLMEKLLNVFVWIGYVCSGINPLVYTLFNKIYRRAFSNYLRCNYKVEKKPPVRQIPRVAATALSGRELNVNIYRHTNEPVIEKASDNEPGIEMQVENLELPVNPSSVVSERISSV
Experimental: To evaluate in radioligand binding assays the activity of compounds of the invention, human recombinant serotonin (5-Hydroxytryptamine) 5-HT2C receptor expressed in Chinese hamster ovary (CHO-K1) cells (Wolf, W. A. and Schutz, J. S., J. Neurochem. 69:1449, 1997) in a modified Tris-HCl buffer (50 mM Tris-HCl, pH 7.4, 0.1% Ascorbic Acid, 10 μM Pargyline) was used. Compounds of the invention were incubated with 1 nM [^3H]Mesulergine for 60 min. at 25° C. Non-specific binding was estimated in the presence of 1 μM Mianserin. Receptor proteins were filtered and washed, the filters were then counted to determine [^3H]Mesulergine specifically bound. Compounds were screened at 1 μM or lower, using 1% DMSO as vehicle. Biochemical assay results are presented as the percent inhibition of specific binding in Table 6.

[2] = target: T2, human recombinant serotonin (5-Hydroxytryptamine) 5-HT2A receptor (Homo sapiens, UniProt P28223); test: Serotonin 5-HT2A radioligand binding ([3H]Ketanserin); details: compound at 1 μM; read-out: Serotonin (1 μM) 5-HT2A, percent inhibition of specific binding
T2 construct: expressed in transfected cells; host or cells: CHO-K1 cells
Experimental: To evaluate in radioligand binding assays the activity of compounds of the invention, human recombinant serotonin (5-Hydroxytryptamine) 5-HT2A receptor expressed in Chinese hamster ovary (CHO-K1) cells (Bonhaus, D. W. et al. Br. J. Pharmacol. 115:622, 1995; Saucier, C. and Albert, P. R., J. Neurochem. 68:1998, 1997) in a 50 mM Tris-HCl buffer, pH 7.4, was used. Compounds of the invention were incubated with 0.5 nM [^3H]Ketanserin for 60 min. at 25° C. Non-specific binding was estimated in the presence of 1 μM Mianserin. Receptor proteins were filtered and washed, the filters were then counted to determine [^3H]Ketanserin specifically bound. Compounds were screened at 1 μM or lower, using 1% DMSO as vehicle. Biochemical assay results are presented as the percent inhibition of specific binding in Table 6.

[3] = target: T3, human recombinant histamine H2 receptor (Homo sapiens, UniProt P25021); test: Histamine H2 radioligand binding ([125I]Aminopotentidine); details: compound at 1 μM; read-out: Histamine Binding (1 μM) H2, percent inhibition of specific binding
T3 construct: expressed in transfected cells; host or cells: CHO-K1 cells
Experimental: To evaluate in radioligand binding assays the activity of compounds of the invention, human recombinant histamine H2 receptor expressed in Chinese hamster ovary (CHO) K1 cells (Ruat, M., Proc. Natl. Acad. Sci. USA. 87(5):1658, 1990) in a 50 mM Phosphate buffer, pH 7.4 was used. Compounds of the invention were incubated with 0.1 nM [^125I]Aminopotentidine for 120 min. at 25° C. Non-specific binding was estimated in the presence of 3 μM Tiotidine. Receptor proteins were filtered and washed, the filters were then counted to determine [^125I]Aminopotentidine specifically bound. Compounds were screened at 1 μM or lower, using 1% DMSO as vehicle. Biochemical assay results are presented as the percent inhibition of specific binding in Table 6.

[4] = target: T4, human recombinant serotonin (5-Hydroxytryptamine) 5-HT6 receptor (Homo sapiens, UniProt P50406); test: Serotonin 5-HT6 radioligand binding ([3H]LSD); details: compound at 1 μM; read-out: Serotonin (1 μM) 5-HT6, percent inhibition of specific binding
T4 construct: expressed in transfected cells; host or cells: human HeLa cells
Experimental: To evaluate in radioligand binding assays the activity of compounds of the invention, human recombinant serotonin (5-Hydroxytryptamine) 5-HT6 receptor expressed in human HeLa cells (Monsma, F. J. Jr. et al., Mol. Pharmacol. 43:320, 1993) in a modified Tris-HCl buffer (50 mM Tris-HCl, pH 7.4, 150 mM NaCl, 2 mM Ascorbic Acid, 0.001% BSA) was used. Compounds of the invention were incubated with 1.5 nM [3H]Lysergic acid diethylamide (LSD) for 120 min. at 37° C. Non-specific binding was estimated in the presence of 5 μM Serotonin (5-HT). Receptor proteins were filtered and washed, the filters were then counted to determine [3H]LSD specifically bound. Compounds were screened at 1 μM or lower, using 1% DMSO as vehicle. Biochemical assay results are presented as the percent inhibition of specific binding in Table 6.

[5] = target: T5, human recombinant histamine H1 receptor (Homo sapiens, UniProt P35367); test: Histamine H1 radioligand binding ([3H]Pyrilamine); details: compound at 1 μM; read-out: Histamine Binding (1 μM) H1, percent inhibition of specific binding
T5 construct: expressed in transfected cells; host or cells: CHO cells
Experimental: To evaluate in radioligand binding assays the activity of compounds of the invention, human recombinant histamine H1 receptor expressed in Chinese hamster ovary (CHO) cells (De Backer, M. D. et al., Biochem. Biophys. Res. Comm. 197(3):1601, 1993) in a modified Tris-HCl buffer (50 mM Tris-HCl, pH 7.4, 2 mM MgCl2, 100 mM NaCl, 250 mM Sucrose) was used. Compounds of the invention were incubated with 1.2 nM [^3H]Pyrilamine for 180 min. at 25° C. Non-specific binding was estimated in the presence of 1 μM pyrilamine. Receptor proteins were filtered and washed, the filters were then counted to determine [^3H]Pyrilamine specifically bound. Compounds were screened at 1 μM or lower, using 1% DMSO as vehicle. Biochemical assay results are presented as the percent inhibition of specific binding in Table 6.

[6] = target: T6, human recombinant dopamine D2L receptor (Homo sapiens, UniProt P14416); test: Dopamine D2L radioligand binding ([3H]Spiperone); details: compound at 1 μM; read-out: Dopamine (1 μM) D2L, percent inhibition of specific binding
T6 construct: expressed in transfected cells; host or cells: CHO cells
Experimental: To evaluate in radioligand binding assays the activity of compounds of the invention, human recombinant dopamine D2L receptor expressed in Chinese hamster ovary (CHO) cells (Grandy, D. K. et al. Proc. Natl. Acad. Sci. USA. 86:9762, 1989; Hayes, G. et al., Mol. Endocrinol. 6:920, 1992) in a modified Tris-HCl buffer (50 mM Tris-HCl, pH 7.4, 1.4 mM Ascorbic Acid, 0.001% BSA, 150 mM NaCl) was used. Compounds of the invention were incubated with 0.16 nM [^3H]Spiperone for 120 min. at 25° C. Non-specific binding was estimated in the presence of 10 μM Haloperidol. Receptor proteins were filtered and washed, the filters were then counted to determine [^3H]Spiperone specifically bound. Compounds were screened at 1 μM or lower, using 1% DMSO as vehicle. Biochemical assay results are presented as the percent inhibition of specific binding in Table 5.

T2 sequence (P28223 whole entry): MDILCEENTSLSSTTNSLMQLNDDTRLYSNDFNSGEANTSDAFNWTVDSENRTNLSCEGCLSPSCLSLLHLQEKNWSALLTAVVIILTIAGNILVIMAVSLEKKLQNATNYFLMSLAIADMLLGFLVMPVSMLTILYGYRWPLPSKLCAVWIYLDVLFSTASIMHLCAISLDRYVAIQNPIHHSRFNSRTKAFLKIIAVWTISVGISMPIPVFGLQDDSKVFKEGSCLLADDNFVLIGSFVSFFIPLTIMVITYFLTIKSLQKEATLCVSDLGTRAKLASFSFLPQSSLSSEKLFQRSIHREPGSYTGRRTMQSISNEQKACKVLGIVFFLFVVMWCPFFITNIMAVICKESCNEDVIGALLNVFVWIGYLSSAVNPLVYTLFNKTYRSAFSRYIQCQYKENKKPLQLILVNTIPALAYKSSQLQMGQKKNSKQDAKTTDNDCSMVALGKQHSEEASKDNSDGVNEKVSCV
T5 sequence (P35367 whole entry): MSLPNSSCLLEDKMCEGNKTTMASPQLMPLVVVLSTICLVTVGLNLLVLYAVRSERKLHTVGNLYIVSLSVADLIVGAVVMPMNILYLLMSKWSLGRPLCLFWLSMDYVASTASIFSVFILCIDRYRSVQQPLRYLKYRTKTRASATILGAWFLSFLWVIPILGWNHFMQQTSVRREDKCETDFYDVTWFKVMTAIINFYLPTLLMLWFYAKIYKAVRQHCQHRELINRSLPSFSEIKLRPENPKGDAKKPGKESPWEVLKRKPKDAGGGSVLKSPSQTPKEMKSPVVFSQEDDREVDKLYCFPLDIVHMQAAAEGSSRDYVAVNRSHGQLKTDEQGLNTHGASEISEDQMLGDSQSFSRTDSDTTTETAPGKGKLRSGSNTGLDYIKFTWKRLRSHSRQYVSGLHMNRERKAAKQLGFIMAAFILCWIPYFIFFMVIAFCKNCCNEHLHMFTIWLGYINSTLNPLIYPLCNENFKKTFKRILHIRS
T3 sequence (P25021 whole entry): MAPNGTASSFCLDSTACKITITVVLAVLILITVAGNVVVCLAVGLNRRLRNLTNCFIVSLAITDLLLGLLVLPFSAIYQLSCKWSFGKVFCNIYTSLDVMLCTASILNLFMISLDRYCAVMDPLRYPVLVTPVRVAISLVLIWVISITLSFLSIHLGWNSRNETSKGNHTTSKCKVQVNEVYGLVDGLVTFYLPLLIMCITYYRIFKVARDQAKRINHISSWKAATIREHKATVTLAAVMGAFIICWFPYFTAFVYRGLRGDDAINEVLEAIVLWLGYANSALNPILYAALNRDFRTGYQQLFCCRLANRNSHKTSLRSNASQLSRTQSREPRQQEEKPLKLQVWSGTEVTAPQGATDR
T6 sequence (P14416 whole entry): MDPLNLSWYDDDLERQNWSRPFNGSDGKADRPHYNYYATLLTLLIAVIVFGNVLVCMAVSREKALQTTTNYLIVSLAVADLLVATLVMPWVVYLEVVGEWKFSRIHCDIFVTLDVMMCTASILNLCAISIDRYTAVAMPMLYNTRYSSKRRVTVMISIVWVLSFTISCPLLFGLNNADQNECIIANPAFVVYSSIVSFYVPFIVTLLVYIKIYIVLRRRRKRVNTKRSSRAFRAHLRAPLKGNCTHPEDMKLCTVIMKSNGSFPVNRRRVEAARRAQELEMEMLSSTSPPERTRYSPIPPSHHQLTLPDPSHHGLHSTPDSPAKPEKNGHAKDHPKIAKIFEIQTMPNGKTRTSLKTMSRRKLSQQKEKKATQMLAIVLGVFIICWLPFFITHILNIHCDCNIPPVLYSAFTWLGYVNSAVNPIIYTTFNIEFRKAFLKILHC
T4 sequence (P50406 whole entry): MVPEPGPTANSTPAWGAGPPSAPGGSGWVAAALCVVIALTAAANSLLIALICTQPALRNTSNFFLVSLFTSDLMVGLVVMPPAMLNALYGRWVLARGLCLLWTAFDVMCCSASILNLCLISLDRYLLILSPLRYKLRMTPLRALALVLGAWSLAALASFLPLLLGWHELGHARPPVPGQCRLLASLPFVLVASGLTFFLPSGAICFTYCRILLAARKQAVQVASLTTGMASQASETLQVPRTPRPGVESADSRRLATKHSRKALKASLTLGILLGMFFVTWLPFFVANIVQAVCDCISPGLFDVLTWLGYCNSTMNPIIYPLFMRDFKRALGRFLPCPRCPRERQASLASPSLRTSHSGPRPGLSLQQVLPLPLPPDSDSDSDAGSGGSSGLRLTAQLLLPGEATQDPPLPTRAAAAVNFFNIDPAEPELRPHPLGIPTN

Row | SMILES | inhibition at 1 µM [1] | inhibition at 1 µM [2] | inhibition at 1 µM [3] | inhibition at 1 µM [4] | inhibition at 1 µM [5] | inhibition at 1 µM [6]
1 | C/C(=C\n1c2c(c3cc(Cl)ccc31)CCN(C)CC2)c1ccc(Cl)c(Cl)c1 [Compound No. 154, (E)-9-chloro-6-(2-(3,4-dichlorophenyl)prop-1-enyl)-1,2,3,4,5,6-hexahydro-3-methylazepino[4,5-b]indole] | 99% | 100% | 97% | 92% | 94% | 33%
2 | C/C(=C\n1c2c(c3cc(C)ccc31)CCN(C)CC2)c1ccc(Cl)c(Cl)c1 [Compound No. 176, (E)-6-(2-(3,4-dichlorophenyl)prop-1-enyl)-1,2,3,4,5,6-hexahydro-3,9-dimethylazepino[4,5-b]indole] | 99% | 99% | 95% | 74% | 82% | 23%
3 | COc1ccc(/C(C)=C/n2c3c(c4cc(Cl)ccc42)CCN(C)CC3)cc1F [Compound No. 157, (E)-9-chloro-6-(2-(3-fluoro-4-methoxyphenyl)prop-1-enyl)-1,2,3,4,5,6-hexahydro-3-methylazepino[4,5-b]indole] | 101% | 98% | 93% | 78% | 68% | 24%
4 | COc1ccc(C#Cn2c3c(c4cc(Cl)ccc42)CCN(C)CC3)cc1F [Compound No. 283, 9-chloro-6-((3-fluoro-4-methoxyphenyl)ethynyl)-3-methyl-1,2,3,4,5,6-hexahydroazepino[4,5-b]indole] | 100% | 90% | 83% | 40% | 12% | 12%
5 | C/C(=C/n1c2c(c3cc(C)ccc31)CCN(C)CC2)c1ccccc1F [Compound No. 240, (Z)-6-(2-(2-fluorophenyl)prop-1-enyl)-3,9-dimethyl-1,2,3,4,5,6-hexahydroazepino[4,5-b]indole] | 97% | 98% | 87% | 102% | 96% | 57%
6 | C/C(=C\n1c2c(c3cc(Cl)ccc31)CCN(C)CC2)c1ccc(F)c(F)c1 [Compound No. 155, (E)-9-chloro-6-(2-(3,4-difluorophenyl)prop-1-enyl)-1,2,3,4,5,6-hexahydro-3-methylazepino[4,5-b]indole] | 98% | 99% | 92% | 101% | 93% | 38%
7 | C/C(=C/n1c2c(c3cc(Cl)ccc31)CCN(C)CC2)c1ccccc1F [Compound No. 242, (Z)-9-chloro-6-(2-(2-fluorophenyl)prop-1-enyl)-3-methyl-1,2,3,4,5,6-hexahydroazepino[4,5-b]indole] | 94% | 99% | 98% | 102% | 100% | 69%
8 | COc1ccc(C#Cn2c3c(c4cc(C)ccc42)CCN(C)CC3)cc1F [Compound No. 284, 6-((3-fluoro-4-methoxyphenyl)ethynyl)-3,9-dimethyl-1,2,3,4,5,6-hexahydroazepino[4,5-b]indole] | 100% | 94% | 4% | 42% | 11% | 11%
9 | C/C(=C\n1c2c(c3cc(Cl)ccc31)CCN(C)CC2)c1ccccc1F [Compound No. 243, (E)-9-chloro-6-(2-(2-fluorophenyl)prop-1-enyl)-3-methyl-1,2,3,4,5,6-hexahydroazepino[4,5-b]indole] | 102% | 98% | 84% | 99% | 93% | 32%
10 | C/C(=C\n1c2c(c3cc(C)ccc31)CCN(C)CC2)c1ccncc1 [Compound No. 253, (E)-3,9-dimethyl-6-(2-(pyridin-4-yl)prop-1-enyl)-1,2,3,4,5,6-hexahydroazepino[4,5-b]indole] | 101% | 102% | 31% | 103% | 32% | 55%
11 | C/C(=C\n1c2c(c3cc(C)ccc31)CCN(C)CC2)c1cccnc1 [Compound No. 247, (E)-3,9-dimethyl-6-(2-(pyridin-3-yl)prop-1-enyl)-1,2,3,4,5,6-hexahydroazepino[4,5-b]indole] | 99% | 98% | 36% | 74% | 82% | 8%
